Assays:
Experiment in all cases: PDH-coupled PDHK assay (residual PDH activity, NADH absorbance at […] nm), […] ATP
Assay type in all cases: biochemical
[1] = molecular target: T1, human PDHK1 (hPDHK1, pyruvate dehydrogenase kinase 1) (Homo sapiens, UniProt Q15118)
T1 construct: gene PDK1; recombinant, Flag-tag at the N-terminus; with PDH enzyme derived from porcine heart (PDH/PDHK complex)

[2] = molecular target: T2, human PDHK3 (hPDHK3, pyruvate dehydrogenase kinase 3) (Homo sapiens, UniProt Q15120)
T2 construct: gene PDK3; recombinant, Flag-tag at the N-terminus; with PDH enzyme derived from porcine heart (PDH/PDHK complex)

[3] = molecular target: T3, human PDHK2 (hPDHK2, pyruvate dehydrogenase kinase 2) (Homo sapiens, UniProt Q15119)
T3 construct: gene PDK2; recombinant, Flag-tag at the N-terminus; with PDH enzyme derived from porcine heart (PDH/PDHK complex)

T2 sequence (Q15120 whole entry): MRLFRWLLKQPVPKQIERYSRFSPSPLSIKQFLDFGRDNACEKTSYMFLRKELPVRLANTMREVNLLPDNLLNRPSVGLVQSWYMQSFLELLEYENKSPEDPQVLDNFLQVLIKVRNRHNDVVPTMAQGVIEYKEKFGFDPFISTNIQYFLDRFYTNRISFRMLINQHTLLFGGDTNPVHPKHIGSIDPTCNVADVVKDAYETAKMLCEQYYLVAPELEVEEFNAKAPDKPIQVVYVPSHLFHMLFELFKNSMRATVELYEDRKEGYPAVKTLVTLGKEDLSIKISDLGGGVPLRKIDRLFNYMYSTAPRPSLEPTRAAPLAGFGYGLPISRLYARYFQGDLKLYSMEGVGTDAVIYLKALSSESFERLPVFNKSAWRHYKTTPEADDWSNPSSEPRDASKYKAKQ
T1 sequence (Q15118 29-436): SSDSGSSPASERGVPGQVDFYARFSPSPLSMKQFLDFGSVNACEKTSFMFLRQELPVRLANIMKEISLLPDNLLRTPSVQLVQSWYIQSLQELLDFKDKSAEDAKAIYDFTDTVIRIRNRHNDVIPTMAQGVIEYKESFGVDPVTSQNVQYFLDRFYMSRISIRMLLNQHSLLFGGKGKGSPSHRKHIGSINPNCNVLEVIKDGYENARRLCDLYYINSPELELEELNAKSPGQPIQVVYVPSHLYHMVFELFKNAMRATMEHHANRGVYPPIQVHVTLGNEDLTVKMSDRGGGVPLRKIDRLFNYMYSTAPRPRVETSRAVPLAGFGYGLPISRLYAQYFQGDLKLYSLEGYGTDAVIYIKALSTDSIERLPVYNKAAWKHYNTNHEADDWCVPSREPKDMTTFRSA

IC50 [1]: 8.17 ± 0.56 nM | IC50 [2]: 50.5 ± 3.23 nM | IC50 [3]: 5.33 ± 0.12 nM
Structure (SMILES): C[C@H]1CN(C(=O)c2c(F)cc(C#N)cc2F)Cc2cnc([C@@](C)(O)C(F)(F)F)n21 [Compound A]
